Test results: ChEMBL document CHEMBL1201862, “PubChem BioAssay data set” (2004)
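In this assay, cells in 96-well plates receive the compound at five concentrations for 48 hours. Endpoints are linearly interpolated between the surrounding concentrations. Abbreviation: GI50, concentration required for 50% inhibition of growth.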 The source made the active and inactive calls. Cut-off read from the data, not from the text of the source: active = GI50 up to about 1.1 µM and inactive = higher.

Key:
Test in all cases: NCI tumour cell line growth inhibition, 48 h
HT-29 = test system: HT-29
CAKI-1 = test system: CAKI-1
HCT-116 = test system: HCT-116
Hs-578T = test system: Hs-578T
Malme-3M = test system: Malme-3M
OVCAR-4 = test system: OVCAR-4
UO-31 = test system: UO-31
U-251 = test system: U-251
SR = test system: SR
TK-10 = test system: TK-10
BT-549 = test system: BT-549
NCI/ADR-RES = test system: NCI/ADR-RES
SK-MEL-5 = test system: SK-MEL-5
PC-3 = test system: PC-3
T47D = test system: T47D
SN12C = test system: SN12C
OVCAR-8 = test system: OVCAR-8
SK-OV-3 = test system: SK-OV-3
HCC 2998 = test system: HCC 2998

Measured: GI50

Nc1nc(O)c2c(n1)NCN(c1ccc(S(N)(=O)=O)cc1)C2
inactive: HT-29 > 100 µM | CAKI-1 > 100 µM | HCT-116 > 100 µM | Hs-578T > 100 µM | Malme-3M > 100 µM | OVCAR-4 > 100 µM | UO-31 > 100 µM | U-251 > 100 µM | SR > 100 µM | TK-10 > 100 µM | BT-549 > 100 µM | NCI/ADR-RES > 100 µM | SK-MEL-5 > 100 µM | PC-3 > 100 µM | T47D > 100 µM | SN12C > 100 µM | OVCAR-8 > 100 µM

COc1cc(NCC2COc3c(ccc(OC)c3OC)C2=O)c([N+](=O)[O-])cc1OC (stereo not drawn)
inactive: HT-29 > 100 µM | CAKI-1 > 100 µM | HCT-116 > 100 µM | Hs-578T 95.3 µM | OVCAR-4 82.4 µM | UO-31 > 100 µM | U-251 > 100 µM | SR 30.8 µM | TK-10 > 100 µM | SK-OV-3 > 100 µM | BT-549 > 10 µM | NCI/ADR-RES > 100 µM | SK-MEL-5 44.3 µM | PC-3 94 µM | T47D 26.1 µM | SN12C 70.1 µM | OVCAR-8 > 100 µM

COC(=O)C(C)(C)NC(=O)C(Cc1ccccc1)Nc1ncnc2c1ncn2-c1ccc(OC)cc1 (stereo not drawn)
inactive: HT-29 19.9 µM | CAKI-1 32.7 µM | HCT-116 28.2 µM | HCC 2998 50.7 µM | Hs-578T 27.8 µM | OVCAR-4 12.7 µM | UO-31 96.4 µM | U-251 26.5 µM | SR > 10 µM | TK-10 > 100 µM | SK-OV-3 46.8 µM | BT-549 40.9 µM | NCI/ADR-RES 31.3 µM | SK-MEL-5 24.8 µM | PC-3 29.5 µM | T47D 17.5 µM | SN12C 85.1 µM | OVCAR-8 48.2 µM

CC[C@@H](/C=C\CCC1(C[C@@H](N)CCC=C(C)C)OCCO1)O[Si](C(C)C)(C(C)C)C(C)C
inactive: HT-29 17.3 µM | CAKI-1 18.8 µM | HCT-116 17.1 µM | HCC 2998 13 µM | Hs-578T 26 µM | OVCAR-4 19.1 µM | UO-31 17.6 µM | U-251 19.9 µM | SR 3.27 µM | TK-10 17.1 µM | SK-OV-3 20 µM | BT-549 20.1 µM | NCI/ADR-RES 16.8 µM | SK-MEL-5 18.1 µM | PC-3 16.1 µM | T47D 23.2 µM | SN12C 17.3 µM | OVCAR-8 11.9 µM

On1c(-c2ccccc2)nc2ccccc2c1=S
inactive: HT-29 6.64 µM | CAKI-1 5.48 µM | HCT-116 2.7 µM | HCC 2998 2.4 µM | Hs-578T 16.5 µM | Malme-3M 5 µM | OVCAR-4 2.22 µM | UO-31 3.39 µM | U-251 4.95 µM | TK-10 > 100 µM | SK-OV-3 6.92 µM | BT-549 > 100 µM | NCI/ADR-RES 4.2 µM | SK-MEL-5 3.58 µM | PC-3 3.61 µM | T47D 3.37 µM | SN12C 7.13 µM | OVCAR-8 4 µM

O=C(/C=C1\N=C(c2ccccc2)N(c2nc3c(Cl)cc(Cl)cc3s2)C1=O)/C=C/c1ccccc1
inactive: HT-29 > 100 µM | CAKI-1 > 100 µM | HCT-116 97.5 µM | HCC 2998 > 100 µM | Hs-578T > 100 µM | Malme-3M > 100 µM | OVCAR-4 > 100 µM | UO-31 > 100 µM | U-251 > 100 µM | TK-10 > 100 µM | SK-OV-3 > 100 µM | BT-549 > 100 µM | NCI/ADR-RES 83.4 µM | SK-MEL-5 56.4 µM | PC-3 69.3 µM | T47D 24.9 µM | SN12C > 100 µM | OVCAR-8 > 100 µM

CC(C)NC(=O)OCC[S+]([O-])c1c(Cl)c(Cl)nn1C (stereo not drawn)
inactive: HT-29 34 µM | CAKI-1 37.6 µM | HCT-116 33.3 µM | Hs-578T > 100 µM | OVCAR-4 49.8 µM | UO-31 > 100 µM | U-251 33.2 µM | SR 48.9 µM | TK-10 > 100 µM | SK-OV-3 > 100 µM | BT-549 > 10 µM | NCI/ADR-RES 42.8 µM | SK-MEL-5 40.9 µM | PC-3 > 100 µM | T47D 38.1 µM | SN12C 70.1 µM | OVCAR-8 > 10 µM

Nc1ncnc2c1ncn2[C@@H]1O[C@H](C(=O)O)[C@@H](O)[C@H]1O [5'-CARBOXY ADENOSINE]
inactive: HT-29 > 100 µM | CAKI-1 > 100 µM | HCT-116 > 100 µM | Hs-578T > 100 µM | Malme-3M > 100 µM | OVCAR-4 > 100 µM | UO-31 > 100 µM | U-251 > 100 µM | SR > 100 µM | TK-10 > 100 µM | SK-OV-3 > 100 µM | BT-549 > 100 µM | NCI/ADR-RES > 100 µM | SK-MEL-5 > 100 µM | PC-3 > 100 µM | T47D > 100 µM | SN12C > 100 µM | OVCAR-8 > 100 µM

CS(=O)(=O)c1ccc(/C=N/NC(N)=S)cc1
inactive: HT-29 > 100 µM | CAKI-1 > 100 µM | HCT-116 > 100 µM | HCC 2998 > 100 µM | Hs-578T > 100 µM | Malme-3M > 100 µM | OVCAR-4 > 100 µM | UO-31 > 100 µM | U-251 > 100 µM | TK-10 > 100 µM | SK-OV-3 > 100 µM | BT-549 > 100 µM | NCI/ADR-RES > 100 µM | SK-MEL-5 > 100 µM | PC-3 > 100 µM | T47D > 100 µM | SN12C > 100 µM | OVCAR-8 > 100 µM

CN(C)CCCNC(=O)c1cc(NC(=O)c2cc(NC(=O)CCCn3c4ccccc4c4ccccc43)cn2C)cn1C
inactive: HT-29 2.59 µM | CAKI-1 19.1 µM | HCT-116 3.27 µM | HCC 2998 5.52 µM | Hs-578T 15.5 µM | Malme-3M 6.03 µM | OVCAR-4 15.5 µM | UO-31 25.6 µM | U-251 11.4 µM | TK-10 12.4 µM | SK-OV-3 12 µM | BT-549 15 µM | NCI/ADR-RES 19.6 µM | SK-MEL-5 5.81 µM | PC-3 19.2 µM | T47D 7.03 µM | SN12C 14.3 µM | OVCAR-8 22.8 µM

CC(=O)C(=NNc1ccc(-n2c(C)nc3ccccc3c2=O)cc1)C(C)=O
inactive: HT-29 > 100 µM | CAKI-1 > 100 µM | HCT-116 > 100 µM | Hs-578T > 100 µM | UO-31 > 100 µM | U-251 > 100 µM | SR > 100 µM | TK-10 > 100 µM | SK-OV-3 > 100 µM | BT-549 > 100 µM | NCI/ADR-RES > 100 µM | SK-MEL-5 11.7 µM | PC-3 > 100 µM | T47D > 100 µM | SN12C > 100 µM | OVCAR-8 > 100 µM
